Results as given in paper PMC6033896, “Discovery of Mcl-1 inhibitors from integrated high throughput and virtual screening” (Scientific Reports, 2018).
Several values for one entry are separate records, joined by “and”; a condition that tells them apart may be missing. Identical values can stand only once.

What was measured:
[1] = biological target: T1, Mcl-1 protein (Homo sapiens, UniProt Q07820); assay: TR-FRET binding assay with Bid-Dy647 peptide; settings: 10 nM Mcl-1, 10 nM Bid-Dy647
T1 construct: human Mcl-1 (residues 171–323); His tag (pHis-TEV vector) (N, cleaved yes); made in house; host or cells: E. coli BL21 (DE3)
Procedure: TR-FRET was performed using black 384-well plates in an Envision Multilabel plate reader (Perkin Elmer Life Sciences). To each well, a mixture of 10 nM Bid-Dy647 peptide (79–99), 10 nM Mcl-1 protein, and Europium-anti-His antibody were added to a final volume of 25 μl in the assay buffer (20 mM potassium phosphate, pH 7.5; 50 mM NaCl, 1 mM EDTA and 0.05% Pluronic F68). The TR-FRET signals were measured with an Envision Multilabel plate reader after 2 h of incubation. (Ex 340 nm, Em615 nm and Em665 nm) and expressed as FRET signal ratio (F665 nm/[…] * 104)

[2] = biological target: T1, Mcl-1 protein; assay: FP-based competitive binding assay with fluorescent labelled Bid BH3 peptide; settings: for Ki: calculated from FP IC50; for IC50: competition with fluorescent Bid probe 2 nM, 20 nM Mcl-1 for purchased compounds, 10 nM for synthesized library
Procedure: (§1) FP-based binding assays were developed and optimized to determine the binding affinities of inhibitors to the recombinant Mcl-1, Bcl-2, Bcl-xL, and Bfl-1, proteins. […] The fluorescent Bid probe was fixed at 2 nM for all assays, except for Bfl-1, where 1 nM was used. 5 μL of the tested compound in DMSO and 120 μL of protein/probe complex in the assay buffer were added to assay plates (Corning #3792), incubated at room temperature for 3 h, and the polarization values (mP) were measured at an excitation wavelength of 485 nm and an emission wavelength of 530 nm using the plate reader Synergy H1 Hybrid, BioTek. IC50 values were determined by nonlinear regression fitting of the competition curves (GraphPad Prism 6.0 Software). The Ki values were calculated as described previously.
(§2) 1. List of compounds purchased from vendors
(§3) Compound s 5, 6, 7, 8 and S3, S4, S5, S6 S7, S8, S9, S10, S17 were purchased from […]
(§4) Compound s 9, 10, 11 and S11, S12, S13 were purchased from I nterbioscreen […]
His-tagged proteins containing human Mcl-1 (residues 171–323), the isoform 2 construct of the human Bcl-2 [Bcl2-2 construct for protein production starts with the Bcl2 sequence of 1-34 a a, followed by the Bcl-xL seq uence of 35-50 aa, and ends with the Bcl-2 sequenc e of 92-202aa.], Bcl-xL (Human Bcl-xL protein, which has an internal deletion for the 45 -85 amino acid residues and a C -terminal truncation for the amino acid residues 212-233), and Bf l-1 (residues 1-151), were expres sed from the pHis -TEV vector (a modified pET vector) in E. coli BL21 (DE3) cells. Cells were grown at 37 °C in 2×YT containing antibiotics to an OD600 density of 1.5, 1 and 0.8 for Mcl-1, Bcl-xL and Bcl-2 respectively. Protein expression wa s induced by 0 .4 mM IPTG at 20 °C overnight for all proteins except for Bf l-1 which was e xpressed at 3 7 °C for four hours . Cells were lysed in 20 mM HEPES pH 7.5, 200 mM NaCl, 0.1% βME with Leupeptin/Aprotinin (Mcl-1), 25mM Tris pH 8.5, 200mM NaCl (Bcl-2), 50mM Tris pH 7.5, 200 mM NaCl (Bcl-xL) and 50 mM Tris pH 8, 500 mM NaCl, 0. 1% βME with Leupeptin/Aprotinin (Bf l-1). All […]
proteins were purified from the soluble fraction using Ni-NTA resin (QIAGEN), following the manufacturer’s instructions. For purification of TEV-cleaved protein, the amino-terminal His tag was cleaved by incubation with TEV protease and the protein was further purified by anion exchange (Source Q) and gel filtration chromatography (Superdex 75, Amersham Biosciences) in 20mM HEPES pH 7.0, 50 mM NaCl (Mcl-1), […]
NaCl, 0.1% βME (Bcl-xL) and 25 mM Tris pH 7.5, 150 mM NaCl, 25% Glycerol, 0.1% βME ( Bf l-1). His-tagged Mcl-1 protein was used for TR-FRET assay and HSQC-NMR.
His-TEV cleaved Mcl-1, Bcl-2, Bcl-xL, and Bf l-1 were used in fluorescent polarization and surface plasmon resonance binding assays.
Mutant Mcl-1 protein wa s prepared by the QuikChange site -directed mutagenesi s method (Stratagene) , where Arg263 was mutated to Ala. The R263A expression pla smid was transformed into Rosetta2 DE3 cells and purified by the same method as the wildtype protein. Cultures were grown to an OD 600 of 1. 5 at 37 °C in Terrific Broth, induced with 0. 4 mM IPTG, and express ed overnight at 20 °C. The follow-up purification was performed the same way as was for Mcl-1 wild-type recombinant

[3] = biological target: T1, Mcl-1 protein; assay: SPR-based solution competitive binding assay, immobilized biotin-labelled Bim BH3 peptide; settings: Mcl-1 20 nM; competition with immobilized Bim BH3 peptide
Procedure: The solution competitive SPR-based assay was performed on Biacore 2000 in a similar way as was already reported. Briefly, N terminal biotin-labelled Bim BH3 peptide (141–166 amino acids) was immobilized on streptavidin (SA) chip giving a density of 800 RU (Response Units). The pre-incubated Mcl-1 protein (20 nM) with tested small-molecule inhibitors for at least 30 min was injected over the surfaces of the chip using assay buffer HBS-P (GE, #BR100368). Response units were measured at 15 s in the dissociation phase, and IC50 values were determined by nonlinear least-squares analysis using GraphPad Prism 6.0 software.

[4] = test system: Eµ-myc lymphoma cells overexpressing Mcl-1; assay: Eµ-myc lymphoma cell viability, flow cytometry; format: cell-based, mice; settings: increasing concentrations, 15 h
Procedure: (§5) MEF cells, including wild-type, Bax/Bak double knockout, Bax−/− single knockout, and Bak−/− single knockout were tested and characterized (Supplementary Fig. S3). The cells were cultured in DMEM (Life Technologies), supplemented with 10% fetal bovine serum (FBS) (Thermo Scientific HyClone) and 1% Penicillin/streptomycin solution (Life Technologies). The retrovirally transduced lymphoma cells isolated from Eμ-myc transgenic mice were provided by Ricky W. Johnstone at the University of Melbourne, Melbourne, Australia and cultured as previously described[37],[65].
(§6) The Mcl-1, Bcl-2, and Bcl-xL retroviral transduced lymphoma Eμ-myc cells were seeded in 12-well plates at 0.5 × 10^6 cells/well. […] The cells were harvested and stained with violet LIVE/DEAD Fixable Dead Cell Stain Kit (Invitrogen) according to manufacturer’s protocol. The percentage of fluorescent positive cells was determined by flow cytometry and calculated using WinList 3.0.

[5] = test system: Eµ-myc lymphoma cells overexpressing Bcl-2; assay: Eµ-myc lymphoma cell viability, flow cytometry; format: cell-based, mice; settings: increasing concentrations
Procedure: as §5, §6

[6] = biological target: T2, Bcl-2 (Homo sapiens, UniProt P10415, DEL35-91/INS34DVEENRTEAPEGTESE); assay: FP-based competitive binding assay with FAM-Bid; settings: FP
T2 construct: His tag (pHis-TEV vector) (N, cleaved yes); made in house; host or cells: E. coli BL21 (DE3)
Procedure: as §1, §2, §3, §4
(§7) His-tagged proteins containing human Mcl-1 (residues 171–323), the isoform 2 construct of the human Bcl-2 [Bcl2-2 construct for protein production starts with the Bcl2 sequence of 1-34 a a, followed by the Bcl-xL seq uence of 35-50 aa, and ends with the Bcl-2 sequenc e of 92-202aa.], Bcl-xL (Human Bcl-xL protein, which has an internal deletion for the 45 -85 amino acid residues and a C -terminal truncation for the amino acid residues 212-233), and Bf l-1 (residues 1-151), were expres sed from the pHis -TEV vector (a modified pET vector) in E. coli BL21 (DE3) cells. Cells were grown at 37 °C in 2×YT containing antibiotics to an OD600 density of 1.5, 1 and 0.8 for Mcl-1, Bcl-xL and Bcl-2 respectively. Protein expression wa s induced by 0 .4 mM IPTG at 20 °C overnight for all proteins except for Bf l-1 which was e xpressed at 3 7 °C for four hours . Cells were lysed in 20 mM HEPES pH 7.5, 200 mM NaCl, 0.1% βME with Leupeptin/Aprotinin (Mcl-1), 25mM Tris pH 8.5, 200mM NaCl (Bcl-2), 50mM Tris pH 7.5, 200 mM NaCl (Bcl-xL) and 50 mM Tris pH 8, 500 mM NaCl, 0. 1% βME with Leupeptin/Aprotinin (Bf l-1). All

[7] = biological target: T3, Bcl-xL (Homo sapiens, UniProt Q07817, DEL45-85); assay: FP-based competitive binding assay with FAM-Bid; settings: FP
T3 construct: His tag (pHis-TEV vector) (N, cleaved yes); made in house; host or cells: E. coli BL21 (DE3)
Procedure: as §1, §2, §3, §4, §7

[8] = biological target: T4, Bfl-1 (Homo sapiens, UniProt Q16548); assay: FP-based competitive binding assay with FAM-Bid
T4 construct: Bf l-1 (residues 1-151); His tag (pHis-TEV vector) (N, cleaved yes); made in house; host or cells: E. coli BL21 (DE3)
T4 sequence (Q16548 1-151): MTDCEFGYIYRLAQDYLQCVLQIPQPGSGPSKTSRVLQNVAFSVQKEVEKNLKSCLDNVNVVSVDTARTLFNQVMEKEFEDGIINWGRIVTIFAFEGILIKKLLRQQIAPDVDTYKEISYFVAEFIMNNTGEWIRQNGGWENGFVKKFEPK
Procedure: as §1, §2, §3, §4, §7

T1 sequence (Q07820 171-323): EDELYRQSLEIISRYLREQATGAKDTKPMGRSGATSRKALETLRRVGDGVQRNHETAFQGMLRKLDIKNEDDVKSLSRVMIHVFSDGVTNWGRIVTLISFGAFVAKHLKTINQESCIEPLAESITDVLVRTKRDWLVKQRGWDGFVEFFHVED
T2 sequence (P10415 with tags, fused parts or gaps INS34DVEEN/V35R/G36T/A37E/P40E/DEL42-87/P88T/V89E/P90S/P91E): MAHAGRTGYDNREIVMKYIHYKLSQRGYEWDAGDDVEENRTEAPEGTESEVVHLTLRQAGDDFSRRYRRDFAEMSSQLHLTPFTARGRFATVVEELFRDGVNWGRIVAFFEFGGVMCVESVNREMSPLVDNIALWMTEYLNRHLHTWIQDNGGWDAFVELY
T3 sequence (Q07817 with tags, fused parts or gaps DEL45-85 limits assumed): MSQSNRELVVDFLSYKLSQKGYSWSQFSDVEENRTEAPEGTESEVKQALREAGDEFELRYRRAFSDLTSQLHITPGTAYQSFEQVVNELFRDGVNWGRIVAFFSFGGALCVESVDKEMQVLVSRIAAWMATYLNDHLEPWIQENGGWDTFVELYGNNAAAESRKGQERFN

Structure (SMILES)	IC50 [1]	Ki [2]	IC50 [2]	IC50 [3]	also measured
c1ccc(CCSc2nnc(-c3ccco3)c(-c3ccco3)n2)cc1 [Compound 43]	5.2 ± 0.1 µM	0.5 ± 0.1 µM	2.2 ± 0.2 µM	–	–
O=C(CSc1nnc(-c2ccco2)c(-c2ccco2)n1)Nc1ccc(-c2ccccc2)cc1 [Compound 35]	5 ± 2.7 µM	0.6 ± 0.1 µM	2.5 ± 0.1 µM	5.1 ± 2.3 µM	–
COc1ccc(NC(=O)CSc2nnc(-c3ccco3)c(-c3ccco3)n2)cc1 [Compound 30]	–	7.8 ± 1.8 µM	33 µM and 33.1 µM	47.4 ± 3.9 µM	–
O=C(CSc1nnc(-c2ccccc2)c(-c2ccccc2)n1)Nc1ccccc1 [Compound 26]	–	> 5 µM	> 20 µM	> 100 µM	–
CCc1ccc(NC(=O)CSc2nnc(-c3ccco3)c(-c3ccco3)n2)cc1 [Compound 28]	5.5 ± 1.8 µM	1.2 ± 0.1 µM	5 ± 0.3 µM	14.3 ± 2 µM	–
CC(C)c1cccc(NC(=O)CSc2nnc(-c3ccco3)c(-c3ccco3)n2)c1 [Compound 38]	–	0.6 ± 0.1 µM	2.6 ± 0.3 µM	–	killing of Eµ-myc cells overexpressing Mcl-1 [4]: killing; effect on Eµ-myc cells overexpressing Bcl-2 [5]: selectivity
CCc1cccc(NC(=O)CSc2nnc(-c3ccco3)c(-c3ccco3)n2)c1 [Compound 37]	–	1.2 ± 0.1 µM	5.3 ± 0.5 µM	–	–
Cc1ccc(NC(=O)c2ccc3nc(-c4ccco4)c(-c4ccco4)nc3c2)cc1 [Compound 46]	–	15.8 ± 2.3 µM	67.1 ± 9.1 µM	–	–
O=C(CSc1nnc(-c2cccs2)c(-c2cccs2)n1)Nc1ccccc1 [Compound 25]	> 100 µM	> 25 µM	> 100 µM	> 100 µM	–
O=C(CSc1nnc(-c2ccco2)c(-c2ccco2)n1)Nc1ccccc1-c1ccccc1 [Compound 41]	12.7 ± 4.5 µM	1 ± 0.1 µM	4.4 ± 0.5 µM	1.9 ± 0.7 µM	–
O=C(CSc1nnc(-c2ccccn2)c(-c2ccccn2)n1)Nc1ccccc1 [Compound 27]	–	> 12.5 µM	> 50 µM	> 100 µM	–
O=C(CSc1nnc(-c2ccco2)c(-c2ccco2)n1)Nc1cccc(-c2ccccc2)c1 [Compound 40]	7.9 ± 4.7 µM	1 ± 0.4 µM	4.1 ± 1.5 µM	7.3 ± 2.1 µM	–
CC(C)c1ccc(NC(=O)CSc2nnc(-c3ccco3)c(-c3ccco3)n2)cc1 [Compound 29]	–	0.5 ± 0.2 µM	2.3 ± 0.7 µM	11.6 ± 1.1 µM	killing of Eµ-myc cells overexpressing Mcl-1 [4]: killing; effect on Eµ-myc cells overexpressing Bcl-2 [5]: selectivity
O=C(CSc1nnc(-c2ccco2)c(-c2ccco2)n1)Nc1ccc(Cc2ccccc2)cc1 [Compound 36]	5.1 ± 1.5 µM	0.6 ± 0.1 µM	2.5 ± 0.6 µM	4.2 ± 0.4 µM	–
c1ccc(CCCSc2nnc(-c3ccco3)c(-c3ccco3)n2)cc1 [Compound 42]	2.4 ± 0.1 µM	0.4 ± 0.1 µM	1.5 ± 0.3 µM	–	IC50 [6]: > 100 µM; Ki [6]: > 25 µM; IC50 [7]: > 100 µM; Ki [7]: > 20 µM; IC50 ([8]; Bfl-1): 11.4 ± 0.1 µM; Ki ([8]; FP): 1.6 ± 0.1 µM
Nc1ccc(NC(=O)CSc2nnc(-c3ccco3)c(-c3ccco3)n2)cc1 [Compound 33]	–	> 25 µM	> 100 µM	> 100 µM	–
CN(C)c1ccc(NC(=O)CSc2nnc(-c3ccco3)c(-c3ccco3)n2)cc1 [Compound 32]	> 80 µM	> 25 µM	> 100 µM	> 100 µM	–
O=C(Nc1ccccc1)c1ccc2nc(-c3ccco3)c(-c3ccco3)nc2c1 [Compound 45]	–	> 12.5 µM	> 50 µM	–	–
O=C(CSc1nnc(-c2ccco2)c(-c2ccco2)n1)Nc1ccc(F)cc1 [Compound 34]	11.6 ± 4 µM	1.9 ± 0.2 µM	8.1 ± 0.8 µM	12.5 ± 1.7 µM	–
O=C(CSc1nnc(-c2ccco2)c(-c2ccco2)n1)Nc1ccc(Oc2ccccc2)cc1 [Compound 31]	9 ± 3.8 µM	1.6 ± 0.4 µM	6.9 ± 1.9 µM	–	–
